Test results taken from publication PMC10866072, “Design, synthesis, molecular modelling and biological evaluation of novel 6-amino-5-cyano-2-thiopyrimidine derivatives as potent anticancer agents against leukemia and apoptotic inducers” (Journal of Enzyme Inhibition and Medicinal Chemistry, 2024).

Key:
[1] = system: HCT-15; format: cell-based; details: Homo sapiens, one dose 10^-5 M, 48 h, read-out: % growth
[2] = system: HOP-92; format: cell-based; details: Homo sapiens, one dose 10^-5 M, 48 h
[3] = system: MALME-3M; format: cell-based; details: Homo sapiens, one dose 10^-5 M, 48 h
[4] = system: SNB-19; format: cell-based; details: Homo sapiens, one dose 10^-5 M, 48 h, read-out: % growth
[5] = system: OVCAR-3; format: cell-based; details: Homo sapiens, one dose 10^-5 M, 48 h
[6] = system: MDA-MB-435; format: cell-based; details: Homo sapiens, one dose 10^-5 M, 48 h, read-out: % growth
[7] = system: SW-620; format: cell-based; details: Homo sapiens, one dose 10^-5 M, 48 h
[8] = system: SK-MEL-2; format: cell-based; details: Homo sapiens, one dose 10^-5 M, 48 h
[9] = system: TK-10; format: cell-based; details: Homo sapiens, one dose 10^-5 M, 48 h
[10] = system: OVCAR-4; format: cell-based; details: Homo sapiens, one dose 10^-5 M, 48 h
[11] = system: SK-MEL-28; format: cell-based; details: Homo sapiens, one dose 10^-5 M, 48 h
[12] = system: SF-295; format: cell-based; details: Homo sapiens, one dose 10^-5 M, 48 h
[13] = system: MOLT-4; format: cell-based; details: Homo sapiens, one dose 10^-5 M, 48 h, read-out: % growth
[14] = system: U251; format: cell-based; details: Homo sapiens, U-251, one dose 10^-5 M, 48 h
[15] = system: KM12; format: cell-based; details: Homo sapiens, one dose 10^-5 M, 48 h
[16] = system: EKVX; format: cell-based; details: Homo sapiens, one dose 10^-5 M, 48 h
[17] = system: ACHN; format: cell-based; details: Homo sapiens, one dose 10^-5 M, 48 h
[18] = system: HL-60(TB); format: cell-based; details: Homo sapiens, one dose 10^-5 M, 48 h
[19] = system: BT-549; format: cell-based; details: Homo sapiens, one dose 10^-5 M, 48 h
[20] = system: OVCAR-8; format: cell-based; details: Homo sapiens, one dose 10^-5 M, 48 h
[21] = system: LOX IMVI; format: cell-based; details: Homo sapiens, one dose 10^-5 M, 48 h, read-out: % growth
[22] = system: NCI/ADR-RES; format: cell-based; details: Homo sapiens, one dose 10^-5 M, 48 h
[23] = system: A498; format: cell-based; details: Homo sapiens, one dose 10^-5 M, 48 h
[24] = system: SN12C; format: cell-based, human; details: Homo sapiens, one dose 10^-5 M, 48 h
[25] = system: SF-268; format: cell-based; details: Homo sapiens, one dose 10^-5 M, 48 h, read-out: % growth
[26] = system: NCI-H460; format: cell-based; details: Homo sapiens, one dose 10^-5 M, 48 h, read-out: % growth
[27] = system: NCI-H226; format: cell-based; details: Homo sapiens, one dose 10^-5 M, 48 h
[28] = system: A549/ATCC; format: cell-based; details: Homo sapiens, one dose 10^-5 M, 48 h
[29] = system: M14; format: cell-based; details: Homo sapiens, one dose 10^-5 M, 48 h
[30] = system: UO-31; format: cell-based; details: Homo sapiens, UO-31, 48 h, one dose 10^-5 M, 48 h
[31] = system: SNB-75; format: cell-based; details: Homo sapiens, one dose 10^-5 M, 48 h
[32] = system: HT29; format: cell-based; details: Homo sapiens, HT-29, one dose 10^-5 M, 48 h
[33] = system: UACC-62; format: cell-based; details: Homo sapiens, one dose 10^-5 M, 48 h
[34] = system: COLO 205; format: cell-based; details: Homo sapiens, one dose 10^-5 M, 48 h
[35] = system: MDA-MB-231/ATCC; format: cell-based; details: Homo sapiens, one dose 10^-5 M, 48 h
[36] = system: full NCI 60 cell lines panel; details: for activity at 10 µM: Homo sapiens, 60 cell, 48 h, read-out: Mean % growth; for activity on all 60 cancer cell lines tested (in words): one dose
[37] = system: SK-OV-3; format: cell-based; details: Homo sapiens, one dose 10^-5 M, 48 h
[38] = system: NCI-H23; format: cell-based; details: Homo sapiens, one dose 10^-5 M, 48 h, read-out: % growth
[39] = system: SK-MEL-5; format: cell-based; details: Homo sapiens, one dose 10^-5 M, 48 h, read-out: % growth
[40] = system: PC-3; format: cell-based; details: Homo sapiens, one dose 10^-5 M, 48 h
[41] = system: HCT-116; format: cell-based; details: Homo sapiens, one dose 10^-5 M, 48 h, read-out: % growth
[42] = system: HS 578T; format: cell-based; details: Homo sapiens; one dose 10^-5 M, 48 h; HS 578T; read-out: % growth
[43] = system: T-47D; format: cell-based; details: Homo sapiens, T47D, one dose 10^-5 M, 48 h, read-out: % growth
[44] = system: DU-145; format: cell-based; details: Homo sapiens, one dose 10^-5 M, 48 h
[45] = system: CAKI-1; format: cell-based; details: Homo sapiens, CAKI-1, 48 h, one dose 10^-5 M, 48 h
[46] = system: CCRF-CEM; format: cell-based; details: Homo sapiens, one dose 10^-5 M, 48 h
[47] = system: K-562; format: cell-based; details: Homo sapiens, K562, one dose 10^-5 M, 48 h
[48] = system: MCF7; format: cell-based; details: Homo sapiens, one dose 10^-5 M, 48 h, read-out: % growth
[49] = system: MDA-MB-468; format: cell-based; details: Homo sapiens, one dose 10^-5 M, 48 h
[50] = system: HCC-2998; format: cell-based; details: Homo sapiens, one dose 10^-5 M, 48 h
[51] = system: RPMI-8226; format: cell-based; details: Homo sapiens, one dose 10^-5 M, 48 h
[52] = system: NCI-H522; format: cell-based; details: Homo sapiens, one dose 10^-5 M, 48 h
[53] = system: UACC-257; format: cell-based; details: Homo sapiens, one dose 10^-5 M, 48 h
[54] = system: 786-0; format: cell-based; details: Homo sapiens, one dose 10^-5 M, 48 h
[55] = system: HOP-62; format: cell-based; details: Homo sapiens, one dose 10^-5 M, 48 h
[56] = system: SF-539; format: cell-based; details: Homo sapiens, one dose 10^-5 M, 48 h
[57] = system: OVCAR-5; format: cell-based; details: Homo sapiens, one dose 10^-5 M, 48 h
[58] = system: SR; format: cell-based; details: Homo sapiens, one dose 10^-5 M, 48 h
[59] = system: IGROV1; format: cell-based; details: Homo sapiens, IGROV-1, one dose 10^-5 M, 48 h, read-out: % growth

SMILES: CN(C)c1ccc(-c2nc(S)nc(N)c2C(=N)NN=Cc2ccccc2)cc1 [Compound 4a, 4-Amino-6-[4-(dimethylamino)phenyl]-2-mercapto-N'-[phenylmethylene] pyrimidine-5-carboximidohydrazide]
- activity at 10 µM [1]: 99.9%
- % growth at 10 µM [2]: 114%
- % growth at 10 µM [3]: 105%
- activity at 10 µM [4]: 102%
- % growth at 10 µM [5]: 102%
- activity at 10 µM [6]: 99.4%
- % growth at 10 µM [7]: 108%
- % growth at 10 µM [8]: 108%
- % cell growth at 10 µM [9]: 105%
- % growth at 10 µM [10]: 101%
- % cell growth at 10 µM [11]: 105%
- % cell growth at 10 µM [12]: 104%
- activity at 10 µM [13]: 106%
- % growth at 10 µM [14]: 111%
- % growth at 10 µM [15]: 107%
- % cell growth at 10 µM [16]: 96.3%
- % growth at 10 µM [17]: 101%
- % growth at 10 µM [18]: 94.7%
- % cell growth at 10 µM [19]: 103%
- % growth of cells at 10 µM [20]: 115%
- activity at 10 µM [21]: 98.3%
- cell growth percent at 10 µM [22]: 104%
- % growth at 10 µM [23]: 107%
- % growth at 10 µM [24]: 103%
- activity at 10 µM [25]: 104%
- activity at 10 µM [26]: 104%
- % growth at 10 µM [27]: 98.6%
- % growth at 10 µM [28]: 103%
- % growth at 10 µM [29]: 106%
- % cell growth at 10 µM [30]: 75%
- % growth at 10 µM [31]: 101%
- % growth at 10 µM [32]: 101%
- % growth at 10 µM [33]: 97.9%
- % growth at 10 µM [34]: 140%
- % growth at 10 µM [35]: 109%
- activity at 10 µM [36]: 104%
- activity on all 60 cancer cell lines tested (in words) [36]: weak activity
- % growth at 10 µM [37]: 118%
- activity at 10 µM [38]: 104%
- activity at 10 µM [39]: 103%
- percent cell growth at 10 µM [40]: 85.1%
- activity at 10 µM [41]: 110%
- activity at 10 µM [42]: 113%
- activity at 10 µM [43]: 105%
- % growth at 10 µM [44]: 104%
- % growth at 10 µM [45]: 99%
- % cell growth at 10 µM [46]: 82%
- % growth at 10 µM [47]: 107%
- activity at 10 µM [48]: 93.1%
- percent cell growth at 10 µM [49]: 117%
- % growth at 10 µM [50]: 113%
- % growth at 10 µM [51]: 89.8%
- % growth at 10 µM [52]: 99.4%
- percent cell growth at 10 µM [53]: 106%
- % growth at 10 µM [54]: 102%
- % growth at 10 µM [55]: 109%
- % growth at 10 µM [56]: 106%
- percent cell growth at 10 µM [57]: 111%
- percent cell growth at 10 µM [58]: 104%
- activity at 10 µM [59]: 111%

SMILES: CN(C)c1ccc(-c2nc(S)nc(N)c2C(=N)NN=Cc2ccc(Cl)cc2)cc1 [Compound 4b, 4-amino-N'-[(4-chlorophenyl)methylene]-6-[4-(dimethylamino)phenyl]-2-mercapto pyrimidine-5-carboximidohydrazide]
- activity at 10 µM [1]: 92.3%
- % growth at 10 µM [2]: 118%
- % growth at 10 µM [3]: 98.7%
- activity at 10 µM [4]: 98.8%
- % growth at 10 µM [5]: 102%
- activity at 10 µM [6]: 96.2%
- % growth at 10 µM [7]: 102%
- % growth at 10 µM [8]: 107%
- % cell growth at 10 µM [9]: 90%
- % growth at 10 µM [10]: 95.5%
- % cell growth at 10 µM [11]: 103%
- % cell growth at 10 µM [12]: 96.8%
- activity at 10 µM [13]: 101%
- % growth at 10 µM [14]: 106%
- % growth at 10 µM [15]: 92.9%
- % cell growth at 10 µM [16]: 91.8%
- % growth at 10 µM [17]: 102%
- % growth at 10 µM [18]: 91.8%
- % cell growth at 10 µM [19]: 95.7%
- % growth of cells at 10 µM [20]: 106%
- activity at 10 µM [21]: 103%
- cell growth percent at 10 µM [22]: 104%
- % growth at 10 µM [23]: 92.1%
- % growth at 10 µM [24]: 88.5%
- activity at 10 µM [25]: 97.5%
- activity at 10 µM [26]: 99.8%
- % growth at 10 µM [27]: 99.8%
- % growth at 10 µM [28]: 98.4%
- % growth at 10 µM [29]: 96.9%
- % cell growth at 10 µM [30]: 65.4%
- % growth at 10 µM [31]: 95.2%
- % growth at 10 µM [32]: 92.7%
- % growth at 10 µM [33]: 94%
- % growth at 10 µM [34]: 137%
- % growth at 10 µM [35]: 102%
- activity at 10 µM [36]: 98.2%
- activity on all 60 cancer cell lines tested (in words) [36]: weak activity
- % growth at 10 µM [37]: 120%
- activity at 10 µM [38]: 101%
- activity at 10 µM [39]: 97.6%
- percent cell growth at 10 µM [40]: 91.5%
- activity at 10 µM [41]: 100%
- activity at 10 µM [42]: 97.5%
- activity at 10 µM [43]: 88.3%
- % growth at 10 µM [44]: 100%
- % growth at 10 µM [45]: 102%
- % cell growth at 10 µM [46]: 76.3%
- % growth at 10 µM [47]: 98.5%
- activity at 10 µM [48]: 90.9%
- percent cell growth at 10 µM [49]: 107%
- % growth at 10 µM [50]: 94.3%
- % growth at 10 µM [51]: 79.1%
- % growth at 10 µM [52]: 92.4%
- percent cell growth at 10 µM [53]: 99.7%
- % growth at 10 µM [54]: 86.7%
- % growth at 10 µM [55]: 109%
- % growth at 10 µM [56]: 98%
- percent cell growth at 10 µM [57]: 109%
- percent cell growth at 10 µM [58]: 98.7%
- activity at 10 µM [59]: 102%
